Experimental data as given in patent US20030044861A1, “Method for diagnosing neoplasia” (priority 1998, published 2003).
Entries after “also recorded” stand apart in the source; their conditions may differ. Read-outs that look alike come from different tables or passages of the source. Values belong to the compound of their own block, whether it stands above or below them.

Legend:
[1] = biological target: T1, PDE peak A (PDE5) from SW-480 cells (Homo sapiens, UniProt O76074); assay: cGMP hydrolysis by PDE peak A; type: biochemical
T1 construct: SW-480 cells are collected and homogenized; The homogenate is centrifuged, and the supernatant is loaded onto a DEAE-Trisacryl M column; endogenous in cells; host or cells: SW-480 human colon carcinoma cells, DEAE-Trisacryl M fraction peak A

[2] = system: PDE peak B (novel cGMP-specific PDE) from SW-480 cells; assay: cGMP hydrolysis by PDE peak B; type: biochemical, human; details: for IC50: cGMP hydrolysis, 0.25 μM 3H-cGMP substrate; for Km: peak B
[3] = system: HT-29 cells; assay: Apoptosis and necrosis by morphology (acridine orange/ethidium bromide); type: cell-based; details: for % Apoptosis / % Necrosis: HT-29 cells treated for 6 days
Method: In one type of apoptosis assay, suspected neoplastic cells are removed from a patient. The cells are then grown in culture in the presence or absence of a cGMP-specific PDE inhibitor. Apoptotic cells are measured by combining both the attached and “floating” compartments of the cultures. The protocol for treating tumor cell cultures with PDE inhibitors and related compounds to obtain a significant amount of apoptosis has been described in the literature. (See, Piazza, G. A., et al., Cancer Research, 55:3110-16, 1995, which is incorporated herein by reference). The novel features of this assay include collecting both floating and attached cells, identification of the optimal treatment times and dose range for observing apoptosis, and identification of optimal cell culture conditions.
Following treatment of neoplastic and normal cells with a test compound, cultures can be assayed for apoptosis and necrosis by fluorescent microscopy following labeling with acridine orange and ethidium bromide. The method for measuring apoptotic cell number has previously been described by Duke & Cohen, “Morphological And Biochemical Assays Of Apoptosis,” Current Protocols In Immunology, Coligan et al., eds. 3.17.1-3.17.16 (1992, which is incorporated herein by reference).
For example, floating and attached cells are collected, and aliquots of cells are centrifuged. The cell pellet is then resuspended in media and a dye mixture containing acridine orange and ethidium bromide. The mixture is then examined microscopically for morphological features of apoptosis.
Apoptotic and necrotic cell death was determined as previously described (Duke and Cohen, In: Current Protocols in Immunology, 3.17.1-3.17.16, New York, John Wiley and Sons, 1992). […] All data were collected from the same experiment.
The diagnostic method of this invention is used to determine whether a particular neoplasia is sensitive to treatment with a cGMP-specific PDE inhibitor. The apoptosis inducing activity for a series of phosphodiesterase inhibitors, specific for different PDEs, was determined. HT-29 cells were treated for 6 days with various inhibitors of phosphodiesterase. Apoptosis and necrosis were determined morphologically after acridine orange and ethidium bromide labeling in accordance with the assay described, supra.

[4] = system: neoplastic cells; assay: Apoptosis induction and growth inhibition in neoplastic cells (words only); type: cell-based
[5] = system: colonic polyps of familial polyposis patients; assay: Apoptosis clinical study, apoptotic labeling index (ALI) in biopsies; type: in vivo, human
Method: Increases in apoptosis are indicative that the neoplasia in question is sensitive to treatment with a cGMP-specific PDE inhibitor, such as sulindac sulfone (aposulind). A human in vivo aposulind-induced selective induction of apoptosis in colonic polyps is described below. Six familial polyposis patients per group were administered one of three doses of aposulind (200 mg, 400 mg which was later lowered to 200 mg for most patients in the group, or 300 mg) twice daily (BID).
Biopsies are taken from patients and used to investigate possible cellular mechanisms of apoptosis. Biopsy samples are placed in transfer media (500 ml RPMI1640 containing 50 ml fetal calf serum, 5×10^8 units penicillin G, and 5×10^6 μg streptomycin) and kept on ice for less than 1 hour until transfer to the pathology department. Upon receipt in the pathology department, samples are removed from the transfer media and oriented mucosa up, serosa down on filter paper, placed between biopsy sponges in a tissue cassette, and fixed in 10% neutral buffered formalin for 24 hours. Samples are then transferred to 70% ethanol and embedded in paraffin. Samples are oriented perpendicularly to the tissue cassette during final orientation in paraffin for longitudinal crypt exposure and easy visualization of mucosa and the relation to the basement membrane.
Four micron sections of tissue were cut, mounted, deparaffinized, rehydrated in graded alcohol, and treated with pepsin (5 mg/ml) to digest protein in the tissue. Sections were washed and treated with 2% hydrogen peroxide (H2O2) in PBS to quench endogenous peroxidase and washed again. Tissue samples were then circled with a PAP pen (Research Products Int., 800-323-9814) to produce a hydrophobic barrier to concentrate reagents on the sample. If a DNase positive control is desired, the sample is treated with DNase for 10 minutes, equilibrated in transferase buffer, and treated using 100 enzyme units/ml terminal transferase enzyme (TdT) at 37° C. for 60 minutes. Samples are washed and anti-digoxigenin-peroxidase is applied. Each sample is then covered with a coverslip and left in a humid box at room temperature for 30 minutes. After washing three times peroxidase is developed using DAB for nine minutes. After sufficient color development, the slides are washed and counterstained with hemotoxylin and eosin.
Apoptotic and nonapoptotic cells are counted on the basis of staining and morphology. An apoptotic labeling index (ALI) is calculated by dividing the total number of apoptotic cells counted by the total number of epithelial cells counted and expressing the quotient as a percentage.

[6] = biological target: T2, GST-PDE5 binding domain fusion protein (Homo sapiens, UniProt O76074); assay: Cyclic GMP binding assay, 3H-cGMP saturation binding; details: read-out: Km for cGMP; 3H-cGMP saturation binding curve at 25° C.
T2 construct: made in house; host or cells: E. coli BL21
Method: The assay was performed in a total volume of 100 μL containing 5 mM sodium phosphate buffer (pH 6.8), 1 mM EDTA and 0.25 mg/ml BSA and H^3-cGMP (5.8 Ci/mmol, NEN). The purified soluble GST-PDE5 binding domain fusion protein (5 to 50 μg/assay) was incubated at […] for one hour and then transferred to a Brandel MB-24 Cell Harvester with GF/B as the filter membrane. Next the fusion protein was washed twice with 10 mL of cold 5 mM potassium buffer, pH 6.8. The membranes were cut out and transferred to scintillation vials, then 1 ml of H2O and 6 ml of Ready Safe liquid scintillation cocktail as added and the samples were counted on a Beckman LS 6500 scintillation counter. A ^3H-cGMP saturation binding curve at 25° C. was generated.

[7] = biological target: PDE5 cGMP-binding sites (Bos taurus, UniProt Q28156); details: bovine PDE5; read-out: Kd of high affinity binding site; cited from earlier work

SMILES: CCCCCC[C@@H]([C@@H](C)O)n1cnc2c(N)ncnc21 (racemic) [EHNA]
IC50 ([1]; cGMP hydrolysis, 0.25 μM 3H-cGMP substrate): > 100 µM
IC50 [2]: 3.7 µM

SMILES: COc1nc2c([nH]1)c(=O)n(C)c(=O)n2CC(C)C [8-methoxy-IBMX]
% Apoptosis [3]: 2%
% Necrosis [3]: 1%

SMILES: O=C([O-])C1CCN(c2nc(NCc3ccc4c(c3)OCO4)c3cc(Cl)ccc3n2)CC1.[Na+] [Compound E4021]
Apoptosis induction in neoplastic cells (in words) [4]: none of the three; also recorded: do not have significant apoptosis-inducing or growth-inhibiting properties
Growth inhibition of neoplastic cells (in words) [4]: none of the three; also recorded: do not have significant apoptosis-inducing or growth-inhibiting properties
Sensitivity of the new cGMP-PDE to inhibition (in words) [2]: relatively insensitive

Mode of inhibition of cGMP hydrolysis, peak A [1]: competitively inhibit
Ratio (IC50 PeakA/Peak B) ([1]; cGMP hydrolysis): 1.0
IC50 [2]: 0.37 µM
SMILES: COc1cc(/C=C2/C(C)=C(CC(=O)NCc3ccccc3)c3cc(F)ccc32)cc(OC)c1OC [Compound E, [(Z)-5-fluoro-2-methyl-1-(3,4,5-trimethoxybenzylidene)-3-indenylacetamide, N-benzyl]]
Apoptosis induction in neoplastic cells (in words) [4]: induce apoptosis in neoplastic cells
Growth inhibition of neoplastic cells (in words) [4]: precisely the opposite
Mode of inhibition of cGMP hydrolysis, peak B [2]: competitively inhibit

SMILES: CC1=C(CC(=O)O)c2cc(F)ccc2/C1=C\c1ccc(S(C)(=O)=O)cc1 [Exisulind, (Z)-5-fluoro-2-methyl-1-[[4-(methylsulfonyl)phenyl]methylene]indene-3-yl acetic acid]
Apoptotic and necrotic cell death (FIG. 1, in words) ([3]; HT-29 cells treated for six days): capable of causing apoptotic cell death without inducing neoplastic cell necrosis
Change in ALI after treatment ([5]; 200 mg BID group): did not demonstrate any elevation
Mean Polyp ALI ([5]; 200 mg BID, Month 1): 4.05%
Mean Polyp ALI ([5]; 200 mg BID, Month 4): 4.52%
Mean Polyp ALI ([5]; 200 mg BID, Month 6): 5.90%
Mean Polyp ALI ([5]; 300 mg BID, Month 1): 4.90%
Mean Polyp ALI ([5]; 300 mg BID, Month 6): 15.63%
Change in ALI of polyps after treatment ([5]; 300 mg BID, six months): two fold increase
Change in ALI of dysplastic tissue after treatment ([5]; 400/200 mg BID group while uniformly dosed at 400 mg BID): two-fold elevation
Mean Polyp ALI ([5]; 400/200 mg BID, Month 1): 10.98%
Mean Polyp ALI ([5]; 400/200 mg BID, Month 4): 5.51%
Mean Polyp ALI ([5]; 400/200 mg BID, Month 6): 5.10%
Polyp size and number ([5]; familial polyposis patients): diminution of polyp size and decrease in polyp number
Change in normal mucosa ALI versus baseline ALI ([5]; normal mucosa, any treatment group, over time): no significant change
Apoptosis levels in regressing polyps ([5]; over six months of treatment): doubled

SMILES: CC(C)Cn1c(=O)n(C)c(=O)c2[nH]cnc21 [IBMX]
% Apoptosis [3]: 4%
% Necrosis [3]: 13%

Ratio (IC50 PeakA/Peak B) ([1]; cGMP hydrolysis): <0.31
IC50 [2]: > 100 µM
SMILES: CC1(C)C(=O)Nc2ccc(C3=NNC(=O)CC3)cc21 [Indolidan]
Sensitivity of the new cGMP-PDE to inhibition (in words) [2]: relatively insensitive

SMILES: Clc1cccc(Nc2nnc(-c3ccccc3)c3ccccc23)c1 [MY5445]
% Apoptosis [3]: 80%
% Necrosis [3]: 5%

SMILES: CCCCOc1cc(CC2CNC(=O)N2)ccc1OC (stereo not drawn) [RO-20-1724]
% Apoptosis [3]: 11%
% Necrosis [3]: 2%

SMILES: COc1ccc(C2CNC(=O)C2)cc1OC1CCCC1 (stereo not drawn) [Rolipram]
Sensitivity of the new cGMP-PDE to inhibition (in words) [2]: relatively insensitive
IC50 [2]: > 100 µM

SMILES: CCCc1nn(C)c2c(=O)[nH]c(-c3cc(S(=O)(=O)N4CCN(C)CC4)ccc3OCC)nc12 [Sildenafil]
Apoptosis induction in neoplastic cells (in words) [4]: none of the three; also recorded: do not have significant apoptosis-inducing or growth-inhibiting properties
Growth inhibition of neoplastic cells (in words) [4]: none of the three; also recorded: do not have significant apoptosis-inducing or growth-inhibiting properties
Inhibition of peak A activity (in words) [1]: inhibited activity of peak A

IC50 [2]: > 100 µM
SMILES: CCOC(=O)C1=C[C@]2(CC)CCCN3CCc4c(n1c1ccccc41)[C@@H]32 [Vinpocetine]
Sensitivity of the new cGMP-PDE to inhibition (in words) [2]: relatively insensitive

Mode of inhibition of cGMP hydrolysis, peak A [1]: competitive inhibition
SMILES: CCCOc1ccccc1-c1nc2nn[nH]c2c(=O)[nH]1 [Zaprinast]
Apoptosis induction in neoplastic cells (in words) [4]: do not have significant apoptosis-inducing or growth-inhibiting properties
Growth inhibition of neoplastic cells (in words) [4]: do not have significant apoptosis-inducing or growth-inhibiting properties
Apoptosis induction in neoplastic cells (in words) ([4]; listed as zaprinast): none of the three
Growth inhibition of neoplastic cells (in words) ([4]; listed as zaprinast): none of the three

Km [6]: 0.41 ± 0.08 µM
Km ([1]; read-out: Km of the enzyme for cGMP, peak A): 1.07 µM
SMILES: Nc1nc2c(ncn2[C@@H]2O[C@@H]3COP(=O)(O)O[C@H]3[C@H]2O)c(=O)[nH]1 [cGMP]
Kd [7]: 0.5 µM
Km ([2]; decreasing slope of Eadie-Hofstee plot, absence of cAMP, read-out: apparent Km): 8.4 µM
Km ([2]; increasing slope of Eadie-Hofstee plot, called submicromolar affinity, read-out: Km): < 1 µM
